Patent US20250147039A1, “Compounds for complexation of rare earth elements and/or s-, p-, d- block metals, their coordination compounds, peptide conjugates, method of their preparation and use thereof” (USTAV ORGANICKE CHEMIE A BIOCHEMIE AV CR V.V.I., priority 2021, published 2025)

Legend:
[1] = Formation of 1,5-cz-[Lu(Lig)] from Lig (metal dependent click-zip) with various absolute concentrations (Chart 12); type: physicochemical
[2] = Formation of 1,5-cz-[M(Lig)] from Lig and M^III ions (metal dependent click-zip) (Charts 4, 5); type: physicochemical; details: for conversion to 1,5-cz-[M(Lig)], Bi^III: 4% DMSO in MOPS/NaOH buffer pH 7.0, TD728 in 50% i-PrOH; for conversion to 1,5-cz-[M(Lig)], Ga^III / conversion to 1,5-cz-[M(Lig)], In^III / conversion to 1,5-cz-[M(Lig)], Sc^III / conversion to 1,5-cz-[M(Lig)], Y^III: MOPS/NaOH buffer pH 7.0; for conversion to 1,5-cz-[M(Lig)], Sc^III / conversion to 1,5-cz-[M(Lig)], Y^III: TD728, TD827 in 50% i-PrOH; for conversion to 1,5-cz-[M(Lig)], Y^III: TD714 sum of two diastereoisomers
[3] = Formation of 1,5-cz-[Ln(Lig)] from Lig and Ln^III ions (metal dependent click-zip), MOPS/NaOH buffer pH 7.0, analytical HPLC (Charts 1, 2); details: MOPS/NaOH buffer pH 7.0
[4] = Formation of 1,5-cz-[M(Lig)] from Lig and M^II ions (metal dependent click-zip) (Charts 6, 7); type: physicochemical; details: MOPS/NaOH buffer pH 7.0; for conversion to 1,5-cz-[M(Lig)], Ca^II / conversion to 1,5-cz-[M(Lig)], Cd^II / conversion to 1,5-cz-[M(Lig)], Pb^II: TD728 in 50% i-PrOH

C#Cc1cccc(CN2CCN(CC(=O)O)CCN(Cc3cc(-c4ccccc4)cc(CN=[N+]=[N-])n3)CCN(CC(=O)O)CC2)n1 [TD647]
conversion to 1,5-cz-[Lu(Lig)] ([1]; A: 1 hour at 80° C., Lig 5.0 × 10^0 mM, Lu^III 7.5 × 10^0 mM): 74%
conversion to 1,5-cz-[Lu(Lig)] ([1]; A: 1 hour at 80° C., Lig 5.0 × 10^1 mM, Lu^III 7.5 × 10^1 mM): 71%
conversion to 1,5-cz-[Lu(Lig)] ([1]; A: 1 hour at 80° C., Lig 5.0 × 10^−1 mM, Lu^III 7.5 × 10^−1 mM): 70%
conversion to 1,5-cz-[Lu(Lig)] ([1]; A: 1 hour at 80° C., Lig 5.0 × 10^−2 mM, Lu^III 7.5 × 10^−2 mM): 60%
conversion to 1,5-cz-[Lu(Lig)] ([1]; A: 1 hour at 80° C., Lig 5.0 × 10^−3 mM, Lu^III 7.5 × 10^−3 mM): 15%
conversion to 1,5-cz-[Lu(Lig)] ([1]; B: 1 day at 80° C., Lig 5.0 × 10^0 mM, Lu^III 7.5 × 10^0 mM): 96%
conversion to 1,5-cz-[Lu(Lig)] ([1]; B: 1 day at 80° C., Lig 5.0 × 10^1 mM, Lu^III 7.5 × 10^1 mM): 84%
conversion to 1,5-cz-[Lu(Lig)] ([1]; B: 1 day at 80° C., Lig 5.0 × 10^−1 mM, Lu^III 7.5 × 10^−1 mM): 97%
conversion to 1,5-cz-[Lu(Lig)] ([1]; B: 1 day at 80° C., Lig 5.0 × 10^−2 mM, Lu^III 7.5 × 10^−2 mM): 96%
conversion to 1,5-cz-[Lu(Lig)] ([1]; B: 1 day at 80° C., Lig 5.0 × 10^−3 mM, Lu^III 7.5 × 10^−3 mM): 59%
conversion to 1,5-cz-[Lu(Lig)] ([1]; C: 1 week at 80° C., Lig 5.0 × 10^0 mM, Lu^III 7.5 × 10^0 mM): 96%
conversion to 1,5-cz-[Lu(Lig)] ([1]; C: 1 week at 80° C., Lig 5.0 × 10^1 mM, Lu^III 7.5 × 10^1 mM): 86%
conversion to 1,5-cz-[Lu(Lig)] ([1]; C: 1 week at 80° C., Lig 5.0 × 10^−1 mM, Lu^III 7.5 × 10^−1 mM): 97%
conversion to 1,5-cz-[Lu(Lig)] ([1]; C: 1 week at 80° C., Lig 5.0 × 10^−2 mM, Lu^III 7.5 × 10^−2 mM): 96%
conversion to 1,5-cz-[Lu(Lig)] ([1]; C: 1 week at 80° C., Lig 5.0 × 10^−3 mM, Lu^III 7.5 × 10^−3 mM): 57%
conversion to 1,5-cz-[M(Lig)], Bi^III ([2]; 1 week at 80° C.): 73%
conversion to 1,5-cz-[M(Lig)], Ga^III ([2]; 1 week at 80° C.): 0%
conversion to 1,5-cz-[M(Lig)], In^III ([2]; 1 week at 80° C.): 8%
conversion to 1,5-cz-[M(Lig)], Sc^III ([2]; 1 week at 80° C.): 35%
conversion to 1,5-cz-[M(Lig)], Y^III ([2]; 1 week at 80° C.): 93%
conversion to 1,5-cz-[M(Lig)], Bi^III ([2]; 1 hour at 80° C.): 29%
conversion to 1,5-cz-[M(Lig)], Ga^III ([2]; 1 hour at 80° C.): 0%
conversion to 1,5-cz-[M(Lig)], In^III ([2]; 1 hour at 80° C.): 0%
conversion to 1,5-cz-[M(Lig)], Sc^III ([2]; 1 hour at 80° C.): 7%
conversion to 1,5-cz-[M(Lig)], Y^III ([2]; 1 hour at 80° C.): 20%
conversion to 1,5-cz-[Ln(Lig)], Ce^III ([3]; after 1 week at 80° C.): 50%
conversion to 1,5-cz-[Ln(Lig)], Ce^III ([3]; after 1 hour at 80° C.): 1%
conversion to 1,5-cz-[Ln(Lig)], Dy^III ([3]; after 1 week at 80° C.): 92%
conversion to 1,5-cz-[Ln(Lig)], Dy^III ([3]; after 1 hour at 80° C.): 13%
conversion to 1,5-cz-[Ln(Lig)], Er^III ([3]; after 1 week at 80° C.): 95%
conversion to 1,5-cz-[Ln(Lig)], Er^III ([3]; after 1 hour at 80° C.): 32%
conversion to 1,5-cz-[Ln(Lig)], Eu^III ([3]; after 1 week at 80° C.): 89%
conversion to 1,5-cz-[Ln(Lig)], Eu^III ([3]; after 1 hour at 80° C.): 4%
conversion to 1,5-cz-[Ln(Lig)], Gd^III ([3]; after 1 week at 80° C.): 92%
conversion to 1,5-cz-[Ln(Lig)], Gd^III ([3]; after 1 hour at 80° C.): 5%
conversion to 1,5-cz-[Ln(Lig)], Ho^III ([3]; after 1 week at 80° C.): 95%
conversion to 1,5-cz-[Ln(Lig)], Ho^III ([3]; after 1 hour at 80° C.): 21%
conversion to 1,5-cz-[Ln(Lig)], La^III ([3]; after 1 week at 80° C.): 49%
conversion to 1,5-cz-[Ln(Lig)], La^III ([3]; after 1 hour at 80° C.): 1%
conversion to 1,5-cz-[Ln(Lig)], Lu^III ([3]; after 1 week at 80° C.): 96%
conversion to 1,5-cz-[Ln(Lig)], Lu^III ([3]; after 1 hour at 80° C.): 64%
conversion to 1,5-cz-[Ln(Lig)], Nd^III ([3]; after 1 week at 80° C.): 79%
conversion to 1,5-cz-[Ln(Lig)], Nd^III ([3]; after 1 hour at 80° C.): 1%
conversion to 1,5-cz-[Ln(Lig)], Pr^III ([3]; after 1 week at 80° C.): 69%
conversion to 1,5-cz-[Ln(Lig)], Pr^III ([3]; after 1 hour at 80° C.): 1%
conversion to 1,5-cz-[Ln(Lig)], Sm^III ([3]; after 1 week at 80° C.): 86%
conversion to 1,5-cz-[Ln(Lig)], Sm^III ([3]; after 1 hour at 80° C.): 3%
conversion to 1,5-cz-[Ln(Lig)], Tb^III ([3]; after 1 week at 80° C.): 91%
conversion to 1,5-cz-[Ln(Lig)], Tb^III ([3]; after 1 hour at 80° C.): 9%
conversion to 1,5-cz-[Ln(Lig)], Tm^III ([3]; after 1 week at 80° C.): 96%
conversion to 1,5-cz-[Ln(Lig)], Tm^III ([3]; after 1 hour at 80° C.): 48%
conversion to 1,5-cz-[Ln(Lig)], Yb^III ([3]; after 1 week at 80° C.): 96%
conversion to 1,5-cz-[Ln(Lig)], Yb^III ([3]; after 1 hour at 80° C.): 61%
conversion to 1,5-cz-[M(Lig)], Ba^II ([4]; 1 week at 80° C.): 0%
conversion to 1,5-cz-[M(Lig)], Ni^II ([4]; 1 week at 80° C.): 0%
conversion to 1,5-cz-[M(Lig)], Sr^II ([4]; 1 week at 80° C.): 0%
conversion to 1,5-cz-[M(Lig)], Zn^II ([4]; 1 week at 80° C.): 0%
conversion to 1,5-cz-[M(Lig)], Ca^II ([4]; 1 week at 80° C.): 87%
conversion to 1,5-cz-[M(Lig)], Cd^II ([4]; 1 week at 80° C.): 86%
conversion to 1,5-cz-[M(Lig)], Pb^II ([4]; 1 week at 80° C.): 54%
conversion to 1,5-cz-[M(Lig)], Ba^II ([4]; 1 hour at 80° C.): 0%
conversion to 1,5-cz-[M(Lig)], Ni^II ([4]; 1 hour at 80° C.): 0%
conversion to 1,5-cz-[M(Lig)], Sr^II ([4]; 1 hour at 80° C.): 0%
conversion to 1,5-cz-[M(Lig)], Zn^II ([4]; 1 hour at 80° C.): 0%
conversion to 1,5-cz-[M(Lig)], Ca^II ([4]; 1 hour at 80° C.): 16%
conversion to 1,5-cz-[M(Lig)], Pb^II ([4]; 1 hour at 80° C.): 2%
conversion to 1,5-cz-[M(Lig)], Cd^II ([4]; 1 hour at 80° C., TD714 sum of two diastereoisomers): 64%
